SMILES strings stand for the structures.

The test system of one assay is VEGF. As to the kind of experiment: VEGF secretion in MM cell culture supernatants (ELISA). To be noted: 10 μM, 96 h. It is filed as cell-based, human. The source says: (§1) Supernatants were collected and snap-frozen for subsequent analysis. VEGF and MMP7 concentrations were, determined in an enzyme linked immunosorbent assay (ELISA) using kits RAB0507, and RAB0369 (VEGF and MMP7 respectively, both Sigma) according to the manufacturer's instructions. Results were normalized to protein concentration of corresponding cell lysates.

A further assay deals with CD147/MCT1 complex. As to the kind of experiment: Immunoblot analysis of CD147 and MCT1 protein levels in myeloma cells. Type of assay: cell-based, human. The method, then:
HEK 293T and HeLa cells were grown in Dulbecco's modified Eagle's Medium (DMEM), each media containing 10% fetal bovine serum. (FBS). The human multiple myeloma cell lines MM1.S, U266, KMS-12-BM, RPMI 8226 and JJN3 were cultured in RPMI-1640 with 10% FBS. […] Sf9 insect cells (Life technologies) were cultured in Sf-900 II serum-free medium (SFM, Life technologies) supplemented with 10% heat-inactivated FBS and 10 μg/ml gentamycin. High Five cells (Invitrogen) were cultured in Express Five SFM supplemented with 10 mM L-glutamine and 10 μg/ml gentamycin. All cells tested mycoplasma negative by a PCR detection method.
Cell samples were lysed in lysis buffer (NaCl 150 mM, Tris-HCl 50 mM, MgCl2 5 mM, EDTA 1 mM, INP-40 0.1%, Glycerol 5% and inhibitors) for whole cell lysates, immunoprecipitations or pulldown experiments. Details of extract preparation, immunoprecipitation, and immunoblotting, were previously described. Briefly, the cellular lysates were centrifuged 15 min at 14 000 rpm at 4° C. to separate from cellular debris. Protein concentration in the supernatants was measured before Laemmli buffer was added. The lysates were separated by SDS-PAGE and blotted onto PVDF (polyvinylidene difluoride) membranes. After blotting, PVDF membranes were stained With. Ponceau solution to evaluate protein loading. After washing and blocking unspecific bindings in 5% milk; the membranes were incubated with primary antibodies. After addition of horseradish peroxidase coupled secondary antibodies, western blot membranes were developed using the ECL (enhanced chemoluminescence) method (SuperSignal West reagents from Thermo Scientific). For immunoprecipitations (IPs), cell lysates were incubated with Flag-M2 agarose beads (Sigma) for Flag-IPs, HA-7 agarose beads (Sigma) for HA-IPs, or protein-A sepharose beads (GE Healthcare) together with primary rabbit antibodies for binding of endogenous proteins (e.g. for CRBN-IP). For the experiments using a protein cross linker, DSS (Pierce) was added to the cells to a final concentration of 1 mM for 45 minutes at RT. The Cross linker was quenched by addition of Tris-HCl, pH 7.5 20 mM and cell lysis was performed as described, with the only exception of HEPES buffer 50 mM, pH 7.5 instead of Tris-HCl buffer. After washing the beads four times in lysis buffer, Laemmli buffer was added and proteins were analyzed by SDS-electrophoresis.
(A western blot detects proteins with antibodies after separation by electrophoresis.)

In assay [1] the test system is del(5q) MDS bone marrow derived CD34+ cells. As to the kind of experiment: Apoptosis (Annexin V/PI) in in vitro propagated del(5q) MDS CD34+ cells. Type of assay: cell-based, human. To be noted: 10 μM lenalidomide, erythroid differentiation, non-erythroid vs early erythroid (CD36+) cells. Here is the method: Mononuclear cells from bone marrow aspirates were enriched for CD34^+ cells by magnetic bead selection (MACS, MiltenylBiotech) according to the manufacturer's instructions. CD34^+ cells were differentiated along the erythroid lineage essentially as known in the art. […] On day 7, 2 IU/ml erythropoietin (EPO Janssen-CILAG GmbH) was added to the cultures to stimulate erythropoiesis. Half medium changes were performed every third day and cells were harvested on day 14.
Cells were collected and washed with Annexin/PI buffer containing […], 1.62 mM CaCl2. Cell pellets were stained with CD34-FITC (BD Pharmingen, clone 581/CD34), CD147-PE (BD Pharmingen, done HIM6), CD33-PC5.5 (Beckmann Coulter, clone D3HL60.251), CD45 PE Cy7 (eBioscience, clone H130), CD36-APC Cy7 (BioLegend, clone 336213), primary CD235α-biotin (eBioscience, clone HIR2) and secondary streptavidin eFluor®450 (eBioscience) antibodies according to manufacturer's instructions. The combination of APC Annexin V (BD Pharmingen) and PI was added for the determination of apoptosis and necrosis. Single stained samples were used for compensation.
Flow cytometry was performed on a CyAn ADP LxP8 (Coulter-Cytomation) and data were analyzed using FlowJo software (TreeStar Inc.).

In assay [2] the test system is MM cell lines. Briefly: Intra- and extracellular lactate measurement in MM cells. It is filed as cell-based, human. The method, then: For analysis of intra- and extracellular lactate, lenalidomide or DMSO treated cells were centrifuged down. For extracellular lactate, the supernatant was collected and frozen; normal cell culture medium was used as control for normalization. For measurement of intracellular lactate, cell pellets were lysed in lysis buffer. Lactate content in cell lysates as well as in the supernatants were analysed with the cobas 8000 (Roche).

For assay [3], the system named is CD147. As to the kind of experiment: Flow cytometry of CD147 cell surface expression in MM1S cells. To be noted: lenalidomide 10 μM. It is filed as cell-based, human. Here is the method: The secondary antibody was […] anti mouse IgG. After washing, stained cells were analysed for CD147 expression using a FACSCalibur (Becton Dickinson).
(A flow cytometer gives signals particle by particle.)

A further assay has as its system MMP7. As to the kind of experiment: MMP7 secretion in MM cell culture supernatants (ELISA). To be noted: 10 μM, 96 h. It is filed as cell-based, human.
From the text: as §1
In general terms: In an ELISA, binding on a coated surface is turned into a signal by an enzyme label.

Assay [4] relates to MM cell lines. Briefly: Cell proliferation / survival of MM cells (trypan blue exclusion). Type of assay: cell-based, human. To be noted: sensitive cells (MM1S), 10 μM lenalidomide, 72 hours. Here is the method:
MM cells were subjected to treatment with lenalidomide/DMSO for the indicated times or infected with lentiviral-shRNA. On days indicated, proliferation was assessed using the trypan blue exclusion method. Results are presented as ratios to DMSO, wildtype or sh_scramble controls.

The test system of assay [5] is CD147. Briefly: CD147 surface expression on erythropoiesis in MDS patient bone marrow (flow cytometry). To be noted: del(5q) MDS patients on lenalidomide treatment vs untreated del(5q) and non-del(5q) MDS. It is filed as in vivo, human. From the text: After informed consent, bone marrow samples from patients with MDS were collected in heparin, lysed with Versalyse® (Beckman Coulter, Krefeld, Germany), stained with anti-human monoclonal fluorochrome-conjugated antibodies and analyzed by flow-cytometry on a Cytomics FC 500 analyzer (Beckman Coulter). The following antibodies were used: Beckman Coulter: CD45-ECD (clone J33), CD33-PE (clone D3HL60.251), CD14-PECy5 (clone RM052), CD7-PE (clone 8H8.1), CD3-PECy5 (clone UCHT1), CD19-PECy7 (clone J4,119), CD7-PE, GlyA-PE (clone 11E4B-7-6), CD34-PECy7 (clone 581) and CD147-FITC (clone HIM6) from BD Biosciences. Using a CD45 vs, SSC gating strategy monocytes, lymphocytes, granulocytes, progenitor cells and CD45low/-GlyA+ cells were identified, Gates were then placed on CD19+ B-cells, CD3+ and CD3-CD7+ NK cells within the lymphocyte gate; on CD33+ granulocytes and CD14+ monocytes; on CD45low/CD33+ CD34+ progenitor cells and on CD45low/-GlyA+ erythropoiesis. CD147 expression of CD45low/-GlyA+ erythropoiesis was then determined by histogram gating. Data are represented as median fluorescence intensity of CD147 relative to isotype-matched control. Data were analyzed using Kaluza® Flow Analysis Software (Beckman Coulter).

Assay [6] deals with CD147. As to the kind of experiment: Pulse chase analysis of CD147 protein maturation in MM1S cells. Type of assay: cell-based, human. To be noted: 35S-Met/Cys pulse-chase. Here is the method:
In a complementary approach using pulse-chase analysis, CD147 protein maturation from the immature core-glycosylated to the mature high-glycosylated form necessary for membrane localization was investigated. […] Importantly, treatment with MLN4924, an inhibitor of Cullin-RING ubiquitin ligases, had no effect on CD147 stability or processing, thereby further underscoring a ubiquitin-independent effect of CRBN on CD147 (FIG. 13h).
Labelling of MM1S cells with ^35S-Met/Cys was essentially performed as described previously. […] Newly translated proteins were metabolically labeled for 45 Minutes with methionine- and cysteine-free DMEM containing 0.2 mCi/ml [35S]-Met/Cys. Cells were then washed three times with PBS (37° C.) and incubated with DMEM for up to 24 hours.

Setting [7] is: lenalidomide-sensitive MM cell lines.

For `Nc1cccc2c1CN(C1CCC(=O)NC1=O)C2=O` (centres unmarked) [lenalidomide], the VEGF secretion entry is reported as “significantly reduced” in the assay on VEGF (setting [7]) and “only minor effects” in the assay with VEGF (resistant MM cell lines). The “Level of immature, core-glycosylated form of CD147” value in the assay on CD147/MCT1 complex (MM1S cells, 10 μM lenalidomide, time course) is given as “progressive accumulation”. Besides, the “Dose dependence of CD147 and MCT1 destabilization” value with CD147/MCT1 complex (MM1S cells, different concentrations, 72 hours) is “destabilizes CD147 and MCT1 in a dose dependent manner”. In addition, the “Destabilization of CD147/MCT1” value in the assay on CD147/MCT1 complex (MM1S cells, 10 μM lenalidomide, 100 nM pomalidomide, 100 μM thalidomide) is given as “destabilize CD147/MCT1”. The “CD147 and MCT1 expression upon lenalidomide exposure” value with CD147/MCT1 complex (lenalidomide-resistant MM lines (KMS12BM, RPMI 8226)) was “remained unchanged”. Further, the “CD147 and MCT1 stability upon lenalidomide exposure” value in the assay with CD147/MCT1 complex (lenalidomide-sensitive MM lines (MM1S, U266)) is “destabilization of CD147 and MCT1”. Besides, the “Lenalidomide-induced apoptosis by cell compartment” value in assay [1] was “largely restricted to early erythroid cells”. For the same compound, the Intracellular lactate levels result is “significantly elevated” in the assay on MM cell lines [2] (setting [7]) and “only minor effects” with MM cell lines [2] (resistant MM cell lines). Besides, the “CD147 cell surface expression” value in the assay on CD147 [3] was “decreased”. In addition, the MMP7 secretion entry is “significantly reduced” with MMP7 (setting [7]) and “only minor effects” with MMP7 (resistant MM cell lines). Moreover, the “Anti-myeloma effect of lenalidomide under induced overexpression of CD147 and MCT1” value in the assay on MM cell lines [4] is “attenuated”. For the same compound, the “CD147 surface expression in the erythropoietic compartment” value in the assay on CD147 [5] is “attenuated to the level of non-del(5q) MDS samples”. In addition, the “CD147 de novo synthesis” value with CD147 [6] was “no effect”. The “CD147 glycosylation as readout for maturation and membrane localization” value in the assay with CD147 [6] was “substantially impaired”.

(Values after patent publication US10987345B2, “Method for assessing the efficacy of IMiDs and composition or combination for use in treating IMiD sensitive diseases” (Klinikum Rechts Der Isar Der Technischen Universitat Munchen, priority 2014, dated 2021).)
